What was measured:
[1] = test system: human acute myeloid leukemia cell line MOLM-13; experiment: In vivo effect of combined use of Compound A and azacitidine on subcutaneous MOLM-13 tumors in NOD-SCID mice (Test Example 1); conditions: for TGI (%): 17 days after tumor inoculation
Description: (§1) Human acute myeloid leukemia cell line MOLM-13 cells were suspended to 5×10^7 cells/mL using phosphate-buffered saline. 0.1 mL of the prepared cell suspension was subcutaneously transplanted to each NOD-SCID mouse (male, 6 weeks old). […] The major axis (mm) and minor axis (mm) of tumor were measured over time using an electronic digital caliper. […] In addition, the results of the last body weight measurement were used in dose calculation. […] A: Average tumor volume of the compound-administered group on the date of assessment (*) B: Average tumor volume of the untreated control group on the date of assessment (*) *: The tumor volume was calculated according to ½×[Major axis of tumor]×[Minor axis of tumor]×[Minor axis of tumor].

[2] = Body weight change of MOLM-13 tumor-bearing NOD-SCID mice, Compound A and azacitidine (Test Example 1); format: in vivo, mouse
Description: (§2) Human acute myeloid leukemia cell line MOLM-13 cells were suspended to 5×10^7 cells/mL using phosphate-buffered saline. 0.1 mL of the prepared cell suspension was subcutaneously transplanted to each NOD-SCID mouse (male, 6 weeks old). On 6 days after the tumor inoculation, after confirmation that the average tumor volume exceeded 100 mm^3, the mice were grouped on the basis of their tumor volume values. 25 mg/kg or 50 mg/kg Compound A was orally administered by forced administration to the mice. 2.5 mg/kg or 4 mg/kg azacitidine was intravenously administered to the tails of the mice. For a combined use group, 25 mg/kg or 50 mg/kg Compound A and 2.5 mg/kg or 4 mg/kg azacitidine were administered sequentially. The administration of Compound A was performed once a day for 5 consecutive days (6 to 10 days after the tumor inoculation) from the date of grouping (6 days after the tumor inoculation), and after a 2-day drug holiday, performed once a day for 4 consecutive days (13 to 16 days after the tumor inoculation). The administration of azacitidine was performed once a day for 5 consecutive days (6 to 10 days after the tumor inoculation) from the date of grouping (6 days after the tumor inoculation). The major axis (mm) and minor axis (mm) of tumor were measured over time using an electronic digital caliper. Tumor growth inhibition % (TGI %) on the date of assessment (17 days after the tumor inoculation) calculated according to calculation formula (4) shown below was used in evaluation. Also, the body weights were measured over time using an automatic balance for small animals, and body weight change % was calculated according to calculation formula (5) shown below to study the influence of drug administration on the body weights. In addition, the results of the last body weight measurement were used in dose calculation.
(§3) Body weight change (%)=Average body weight change % of the individuals (5)
(§4) Body weight change % of each individual=[…]
(§5) BWn: Body weight on day n
(§6) BWs: Body weight on the start day of administration

[3] = test system: human acute myeloid leukemia cell line MOLM-13; experiment: In vivo effect of combined use of Compound A and decitabine on subcutaneous MOLM-13 tumors in NOD-SCID mice (Test Example 2); conditions: for TGI (%): 17 days after tumor inoculation
Description: as §1, with “old). […] For a combined use group, 25 mg/kg or 50 mg/kg Compound A and 1 mg/kg or 50 mg/kg decitabine were administered sequentially.” for “old).”

[4] = Body weight change of MOLM-13 tumor-bearing NOD-SCID mice, Compound A and decitabine (Test Example 2); format: in vivo, mouse
Description: as §2, with “the mice. 1 mg/kg or” for “the mice. 2.5 mg/kg or”, “mg/kg or 50 mg/kg decitabine” for “mg/kg or 4 mg/kg azacitidine”, “50 mg/kg decitabine was intravenously” for “4 mg/kg azacitidine was intravenously”, “A and 1 mg/kg or” for “A and 2.5 mg/kg or”, “50 mg/kg decitabine were administered” for “4 mg/kg azacitidine were administered”, “administration of decitabine to the 50 mg/kg group was performed at the date of grouping (6 days after the tumor inoculation), and the administration thereof to the 1 mg/kg group was performed” for “administration of azacitidine was performed”
as §3, §4, §5, §6

[5] = Compound A 25 mg/kg oral, day 6 after tumor inoculation
[6] = Compound A 25 mg/kg oral, day 8 after tumor inoculation
[7] = Compound A 25 mg/kg oral, day 10 after tumor inoculation
[8] = Compound A 25 mg/kg oral, day 13 after tumor inoculation
[9] = Compound A 25 mg/kg oral, day 15 after tumor inoculation
[10] = Compound A 25 mg/kg oral, day 17 after tumor inoculation
[11] = Compound A 50 mg/kg oral, day 6 after tumor inoculation
[12] = Compound A 50 mg/kg oral, day 8 after tumor inoculation
[13] = Compound A 50 mg/kg oral, day 10 after tumor inoculation
[14] = Compound A 50 mg/kg oral, day 13 after tumor inoculation
[15] = Compound A 50 mg/kg oral, day 15 after tumor inoculation
[16] = Compound A 50 mg/kg oral, day 17 after tumor inoculation

For `CC1(C)CCC2(CC1)N[C@@H](C(=O)N[C@@H]1CC[C@@H](C(N)=O)OC1)[C@H](c1ccnc(Cl)c1F)[C@]21C(=O)Nc2cc(Cl)ccc21.Cc1ccc(S(=O)(=O)O)cc1` [Compound A, (3′R,4′S,5′R)—N-[(3R,6S)-6-carbamoyltetrahydro-2H-pyran-3-yl]-6″-chloro-4′-(2-chloro-3-fluoropyridin-4-yl)-4,4-dimethyl-2″-oxo-1″,2″-dihydrodispiro[cyclohexane-1,2′-pyrrolidine-3′,3″-indole]-5′-carboxamide p-toluenesulfonate], the “TGI (%)” value ([1]; Compound A 25 mg/kg oral) was 34%, the “Estimated tumor volume, average” value [1, 5] was 118 mm^3 and the “Estimated tumor volume, average” value [1, 6] was 269 mm^3. For the same molecule, the “Estimated tumor volume, average” value [1, 7] was 418 mm^3, the “Estimated tumor volume, average” value [1, 8] was 834 mm^3 and the “Estimated tumor volume, average” value [1, 9] was 1346 mm^3. For the same molecule, the “Estimated tumor volume, average” value [1, 10] was 1697 mm^3, the “TGI (%)” value ([1]; Compound A 50 mg/kg oral) was 72% and the “Estimated tumor volume, average” value [1, 11] was 116 mm^3. For the same molecule, the “Estimated tumor volume, average” value [1, 12] was 180 mm^3, the “Estimated tumor volume, average” value [1, 13] was 197 mm^3 and the “Estimated tumor volume, average” value [1, 14] was 364 mm^3. The “Estimated tumor volume, average” value [1, 15] was 545 mm^3, the “Estimated tumor volume, average” value [1, 16] was 721 mm^3 and the “Body weight change (%), average” value [2, 5] was 0.0%. For the same molecule, the “Body weight change (%), average” value [2, 6] was 2.5%, the “Body weight change (%), average” value [2, 7] was 3.7% and the “Body weight change (%), average” value [2, 8] was 9.0%. For the same molecule, the “Body weight change (%), average” value [2, 9] was 10.8%, the “Body weight change (%), average” value [2, 10] was 13.8% and the “Body weight change (%), average” value [2, 11] was 0.0%. The “Body weight change (%), average” value [2, 12] was 1.7%, the “Body weight change (%), average” value [2, 13] was 4.4% and the “Body weight change (%), average” value [2, 14] was 8.7%. For the same molecule, the “Body weight change (%), average” value [2, 15] was 8.9%, the “Body weight change (%), average” value [2, 16] was 10.7% and the “TGI (%)” value ([3]; Compound A 25 mg/kg oral) was 22%. For the same molecule, the “Estimated tumor volume, average” value [3, 5] was 147 mm^3, the “Estimated tumor volume, average” value [3, 6] was 257 mm^3 and the “Estimated tumor volume, average” value [3, 7] was 388 mm^3. For the same molecule, the “Estimated tumor volume, average” value [3, 8] was 876 mm^3, the “Estimated tumor volume, average” value [3, 9] was 1213 mm^3 and the “Estimated tumor volume, average” value [3, 10] was 1825 mm^3. The “TGI (%)” value ([3]; Compound A 50 mg/kg oral) was 76%, the “Estimated tumor volume, average” value [3, 11] was 143 mm^3 and the “Estimated tumor volume, average” value [3, 12] was 227 mm^3. For the same molecule, the “Estimated tumor volume, average” value [3, 13] was 170 mm^3, the “Estimated tumor volume, average” value [3, 14] was 310 mm^3 and the “Estimated tumor volume, average” value [3, 15] was 407 mm^3. For the same molecule, the “Estimated tumor volume, average” value [3, 16] was 554 mm^3, the “Body weight change (%), average” value [4, 5] was 0.0% and the “Body weight change (%), average” value [4, 6] was 2.3%. For the same molecule, the “Body weight change (%), average” value [4, 7] was 2.0%, the “Body weight change (%), average” value [4, 8] was 8.0% and the “Body weight change (%), average” value [4, 9] was 8.5%. For the same molecule, the “Body weight change (%), average” value [4, 10] was 10.3%, the “Body weight change (%), average” value [4, 11] was 0.0% and the “Body weight change (%), average” value [4, 12] was 1.7%. For the same molecule, the “Body weight change (%), average” value [4, 13] was 2.4%, the “Body weight change (%), average” value [4, 14] was 7.4% and the “Body weight change (%), average” value [4, 15] was 6.2%. For the same molecule, the “Body weight change (%), average” value [4, 16] was 7.2%.

From US20190240210A1, “Treatment Method by Combined Use of MDM2 Inhibitor and DNA Methyltransferase Inhibitor” (DAIICHI SANKYO COMPANY, LIMITED, priority 2016, published 2019)
